Assay results from patent US20050175644A1, “Preparation for oxidation-sensitive compounds and method for making same” (priority 2002, published 2005).

Columns and labels:
lipid-coated viruses = conditions: against lipid-coated viruses; cited from earlier work
[1] = stability of BHT in the preparation on storage, liquid chromatography; assay type: physicochemical
Experimental: Finally, the stability of BHT in a preparation according to the invention was tested: • a container with 40 kg of preparation, covered with a simple lid without any special packaging such as the addition of an inert gas (e.g. nitrogen), was placed in storage for three yeas.

[2] = test system: transformed human keratinocytes (cell line TR 146); assay: acute ocular tolerance on reconstituted corneas ([…] model), MTT cell viability test; assay type: cell-based; parameters: key to Colour of the two cultures: deep blue/purple colour when they are viable; white/yellow in colour if cell death occurs
Experimental: To start with, the product was evaluated in terms of its capacity to trigger cytopathic effects on corneas reconstituted by means of in vitro transformed keratinocytes cultures.
When they are cultured at the air-liquid interface in a specific medium, transformed human keratinocytes (cell line TR 146) form epithelial tissue without a corneal layer, similar to the human eye.
A sample of the product to be studied (30 μl) was deposited on each of the six equivalent reconstituted corneal cultures and spread out using a thin brush.
Two cultures were then incubated at 37° C., 5% CO2 for 10 minutes, 1 hour, 3 hours and 24 hours.
Negative controls substances (buffered phosphate saline solution A) and positive controls substances (0.4% SDS for “sodium dodecyl sulfate” in solution A) were prepared under sterile conditions and deposited simultaneously on the other two cultures. These cultures were incubated for one hand 24 hours. […]
Cell viability was measured qualitatively after staining. […]
After incubation for 30 minutes at room temperature, each culture's colour is observed and recorded: • negative control cultures should be a deep blue/purple colour, evidence of the viability of cells in the basal layer after 24 hours in contact, • positive control cultures should be white, evidence of cell death from the first hour of contact.

**Q.** Which antiviral properties (lipid-coated viruses) does the source give for `CC(C)(C)c1cc(C(=O)OCCOCCOCCOCCOCCOCCOCCOCCO)cc(C(C)(C)C)c1O` [AVF1, octaoxyethyleneglycol 3,5-di-tert-butyl-4-hydroxybenzoate] here?
**A.** antiviral properties

**Q.** With `CC(C)(C)c1cc(C(=O)O)cc(C(C)(C)C)c1O` [BG4, 3,5-di-tert-butyl-4-hydroxybenzoic acid] as the molecule, how does the antiviral properties (lipid-coated viruses) read?
**A.** antiviral properties

**Q.** Which results are given for `Cc1cc(C(C)(C)C)c(O)c(C(C)(C)C)c1` [BHT, 3,5-di-tert-butyl-4-hydroxytoluene]?
**A.** BHT concentrations by liquid chromatography ([1]; 40 kg of preparation in a container with simple lid, no inert gas, stored three years): remained the same; stability of BHT in a preparation according to the invention ([1]; storage for three years): excellent; antiviral properties (lipid-coated viruses): antiviral properties

**Q.** What does the source list for `CCCCCCCCCCCCOS(=O)(=O)[O-].[Na+]` [Positive control, sodium dodecyl sulfate]?
**A.** Colour of the two cultures ([2]; 1 hour contact, MTT): white; Toxicity ([2]; interpretation of the colours at 10 min, 1, 3 and 24 hours): VI (very irritant (VI): white at 10 minutes, 1 hour, 3 hours and 24 hours)
